According to patent publication US8637681B2, “Pyrrolyl substituted dihydroindol-2-one derivatives, preparation methods and uses thereof” (Qilu Pharmaceutical Co., Ltd., priority 2010, dated 2014):

Legend:
[1] = Cytotoxicity test (SRB), A549; assay type: cell-based; conditions: human, A549 non-small cell lung cancer cells
Summary of the method: (§1)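 Cells seeded at 4000/well in DMEM with 10% FBS, adhered overnight, then treated 72 h at 37° C, 5% CO2 with compound (final DMSO 0.25%). TCA-fixed and stained with SRB, A540 read. IC50 (μM) calculated by Logit method.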

[2] = system: three kinds of tumor cells (A549, Hela, A431); test: Cytotoxicity test, summary over the three tumor cell lines; assay type: cell-based, human; conditions: compared with positive control Sunitinib
Procedure: Cytotoxicity of the compounds of the present invention was tested with human non-small cell lung cancer cells A549, human cervical cancer Hela cells, human skin cancer cells A431. The test was performed by referring to the method described by Rusnak et al (Rusnak D. W., et al., Cell Prolif., 2007, 40, 580-94).
In Dulbecco's Modified Eagle Medium (DMEM) comprising 10% fetal bovine serum, 2 mM glutamine and non-essential amino acids, cells were cultured at 37° C. in 5% CO2 cell incubator. Trypsin/ethylenediamine tetraacetic acid (EDTA) were used to harvest cells in cell culture bottle. The cells were added to a 96-well cell culture plate, 4000/well (0.1 ml medium), adhering wall overnight, 0.1 ml of the diluted solution of the compounds to be tested was added, the final concentration of DMSO was 0.25%. The cell culture plate was incubated at 37° C., 5% CO2 conditions for 72 h. The change of cellular morphology was observed under microscope, and then 50 μl of 50% (mass/volume) trichloroacetic acid (TCA) was added to each well to fix cells. The final concentration of TCA was 10%. It stood for 5 min, than was placed in 4° C. refrigerator for 1 h, the wells of the culture plate were washed with deionized water for 5 times to remove TCA, drained, dried in air until no wet trace was observed. 100 μl of 0.4% (mass/volume) SRB was added to each well, stood at room temperature for 10 min. The liquid in each well was discarded, and then the wells were washed with 1% acetic acid for 5 times, dried in air, extracted with 150 μl of 10 mM Tris base (trihydroxymethylaminomethane, pH 10.5). The absorption at a wavelength of 540 nm was measured. The IC50 (μM) of the compound was calculated using Logit method.

[3] = Cytotoxicity test (SRB), Hela; assay type: cell-based; conditions: human, Hela cervical cancer cells
Summary of the method: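 A549, Hela and A431 cells seeded at 4000/well, adhered overnight, then exposed to compound dilutions (final DMSO 0.25%) for 72 h at 37° C., 5% CO2. SRB read-out: absorbance at 540 nm; IC50 (μM) calculated by Logit method.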

[4] = system: human colon cancer HT 29 transplanted tumor; test: Nude mice transplanted tumor test; assay type: in vivo, female Balb/cA nude mice; parameters: key to d21 Vave ± SD (average tumor volume): tumor volume TV = ½×a×b² (a, b = major, minor diameter), in mm³; conditions: for Dead animal number / inhibition in vivo at 80 mg/kg / d21 Wave ± SD (average bodyweight of nude mice) / d21 Vave ± SD (average tumor volume) / d21 RTV ± SD (relative tumor volume): 80 mg/kg intragastrically each day for 20 days; for Dead animal number: dead/total animals; for inhibition in vivo at 80 mg/kg: Mus musculus, HT-29, po, 504 h, (1−T/C)×100%, read-out: Tumor inhibition rate d21 (%); for inhibition in vivo at 80 mg/kg / d21 Wave ± SD (average bodyweight of nude mice) / d21 Vave ± SD (average tumor volume) / d21 RTV ± SD (relative tumor volume): d21; for d0 Wave ± SD (average bodyweight of nude mice): d0, at grouping before administration (baseline); for d21 Vave ± SD (average tumor volume): HT 29 in nude mice; for d21 RTV ± SD (relative tumor volume): RTV=Vt/V0
Summary of the method: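 Female Balb/cA nude mice bearing HT 29 colon tumour fragments in the right axilla, grouped at about 120 mm^3, received 80 mg/kg intragastrically daily for 20 days; vehicle was water with 0.1% Tween 80. Tumour volume (½×a×b^2) measured 2-3 times weekly, expressed as relative tumour volume Vt/V0.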

[5] = system: arterial ring angiogenesis in rats; test: Inhibitory actions on arterial ring angiogenesis in rats; assay type: cell-based; conditions: Rattus norvegicus, area covered by micrangiums vs control well, read-out: Inhibitory rate (%); for inhibition at 0.2 µg/mL: 0.2 μg/ml; for inhibition at 1 µg/mL: 1 μg/ml; for inhibition at 5 µg/mL: 5 μg/ml
Summary of the method: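 Rat thoracic aorta cut into 1 mm rings, embedded in Matrigel and cultured at 37 °C with compound; medium and drug renewed every 3 days. Microvessel sprouting area imaged by microscopy; inhibition (%) = (control area − drug area)/control area × 100.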

[6] = Cytotoxicity test (SRB), A431; assay type: cell-based; conditions: human, A431 skin cancer cells
Summary of the method: as §1

**Q.** With C=CC(=O)Nc1c(C)[nH]c(/C=C2\C(=O)Nc3ccc(F)cc32)c1C [Compound 7, N-{5-[5-fluoro-2-oxo-1,2-dihydro-indol-(3Z)-ylidenemethyl]-2,4-dimethyl-1H-pyrrol-3-yl}-acrylamide] as the compound, how does the IC50 at 72 h [1] read?
**A.** Its IC50 at 72 h is over 30 µM.

**Q.** What about the “Cytotoxicity to tumor cells (in words)” value [2] of the same compound?
**A.** The value was “certain toxicity to some cells”.

**Q.** What about the IC50 at 72 h [3] of the same compound?
**A.** Its IC50 at 72 h is 6.78 µM.

**Q.** What about the Dead animal number [4] of the same compound?
**A.** The Dead animal number was 0/6.

**Q.** And the inhibition in vivo at 80 mg/kg [4]?
**A.** The inhibition in vivo at 80 mg/kg was 59.8%.

**Q.** What about the “d0 Wave ± SD (average bodyweight of nude mice)” value (“d0 Wave ± SD” below) [4] of the same compound?
**A.** Its value is 19.4 ± 0.41.

**Q.** And the “d21 Wave ± SD (average bodyweight of nude mice)” value (“d21 Wave ± SD” for short) [4]?
**A.** Its value is 20.9 ± 0.38.

**Q.** And the “d21 Vave ± SD (average tumor volume)” value [4]?
**A.** Its value is 359.8 ± 45.4.

**Q.** And the “d21 RTV ± SD (relative tumor volume)” value [4]?
**A.** Its value is 2.89 ± 1.05.

**Q.** And the inhibition at 0.2 µg/mL [5]?
**A.** Its inhibition at 0.2 µg/mL is 95%.

**Q.** What about the inhibition at 1 µg/mL [5] of the same compound?
**A.** Its inhibition at 1 µg/mL is 100%.

**Q.** And the inhibition at 5 µg/mL [5]?
**A.** The inhibition at 5 µg/mL was 100%.

**Q.** What about the IC50 at 72 h [6] of the same compound?
**A.** The IC50 at 72 h was over 30 µM.

**Q.** With CCN(CC)CCS(=O)(=O)Nc1c(C)[nH]c(/C=C2\C(=O)Nc3ccc(F)cc32)c1C [Compound 9, N-{5-[5-fluoro-2-oxo-1,2-dihydro-indol-(3Z)-ylidenemethyl]-2,4-dimethyl-1H-pyrrol-3-yl}-2-(N,N-diethylamino)ethylsulfonamide] as the compound, how does the IC50 at 72 h [1] read?
**A.** Its IC50 at 72 h is over 30 µM.

**Q.** And the “Cytotoxicity to tumor cells (in words)” value [2]?
**A.** The value was “certain toxicity to some cells”.

**Q.** And the IC50 at 72 h [3]?
**A.** The IC50 at 72 h was over 30 µM.

**Q.** And the Dead animal number [4]?
**A.** Its Dead animal number is 0/6.

**Q.** What about the inhibition in vivo at 80 mg/kg [4] of the same compound?
**A.** Its inhibition in vivo at 80 mg/kg is 63%.

**Q.** What about the “d0 Wave ± SD” value [4] of the same compound?
**A.** Its value is 19.6 ± 0.25.

**Q.** What about the “d21 Wave ± SD” value [4] of the same compound?
**A.** The value was 21.4 ± 0.38.

**Q.** What about the “d21 Vave ± SD (average tumor volume)” value [4] of the same compound?
**A.** The value was 328.3 ± 45.4.

**Q.** What about the “d21 RTV ± SD (relative tumor volume)” value [4] of the same compound?
**A.** The value was 2.66 ± 0.69.

**Q.** What about the inhibition at 0.2 µg/mL [5] of the same compound?
**A.** The inhibition at 0.2 µg/mL was 93%.

**Q.** What about the inhibition at 1 µg/mL [5] of the same compound?
**A.** The inhibition at 1 µg/mL was 100%.

**Q.** And the inhibition at 5 µg/mL [5]?
**A.** Its inhibition at 5 µg/mL is 100%.

**Q.** And the IC50 at 72 h [6]?
**A.** The IC50 at 72 h was 8.58 µM.

**Q.** Which IC50 at 72 h [1] does the source give for Cc1[nH]c(/C=C2\C(=O)Nc3ccc(F)cc32)c(C)c1NC(=O)CCN1CCOCC1 [Compound 12, N-{5-[5-fluoro-2-oxo-1,2-dihydro-indol-(3Z)-ylidenemethyl]-2,4-dimethyl-1H-pyrrol-3-yl}-3-(morpholin-4-yl)propionamide] here?
**A.** The IC50 at 72 h was over 30 µM.

**Q.** What about the “Cytotoxicity to tumor cells (in words)” value [2] of the same compound?
**A.** The value was “certain toxicity to some cells”.

**Q.** And the IC50 at 72 h [3]?
**A.** Its IC50 at 72 h is 4.75 µM.

**Q.** What about the Dead animal number [4] of the same compound?
**A.** The Dead animal number was 0/6.

**Q.** What about the inhibition in vivo at 80 mg/kg [4] of the same compound?
**A.** The inhibition in vivo at 80 mg/kg was 79.8%.

**Q.** And the “d0 Wave ± SD” value [4]?
**A.** The value was 17.2 ± 0.54.

**Q.** And the “d21 Wave ± SD” value [4]?
**A.** Its value is 19.1 ± 0.57.

**Q.** And the “d21 Vave ± SD (average tumor volume)” value ([4]; in mm³ (unit assumed))?
**A.** The value was 197.9 ± 48.1.

**Q.** What about the “d21 RTV ± SD (relative tumor volume)” value [4] of the same compound?
**A.** Its value is 1.45 ± 0.37.

**Q.** What about the inhibition at 0.2 µg/mL [5] of the same compound?
**A.** The inhibition at 0.2 µg/mL was 94%.

**Q.** And the inhibition at 1 µg/mL [5]?
**A.** The inhibition at 1 µg/mL was 100%.

**Q.** What about the inhibition at 5 µg/mL [5] of the same compound?
**A.** Its inhibition at 5 µg/mL is 100%.

**Q.** What about the IC50 at 72 h [6] of the same compound?
**A.** The IC50 at 72 h was 7.59 µM.

**Q.** With Cc1[nH]c(/C=C2\C(=O)Nc3ccc(F)cc32)c(C)c1NC(=O)CCN1CCCCC1 [Compound 13, N-{5-[5-fluoro-2-oxo-1,2-dihydro-indol-(3Z)-ylidenemethyl]-2,4-dimethyl-1H-pyrrol-3-yl}-3-(piperidin-1-yl)propionamide] as the compound, how does the IC50 at 72 h [1] read?
**A.** The IC50 at 72 h was over 30 µM.

**Q.** And the “Cytotoxicity to tumor cells (in words)” value [2]?
**A.** The value was “certain toxicity to some cells”.

**Q.** What about the IC50 at 72 h [3] of the same compound?
**A.** Its IC50 at 72 h is over 30 µM.

**Q.** What about the Dead animal number [4] of the same compound?
**A.** Its Dead animal number is 0/6.

**Q.** What about the inhibition in vivo at 80 mg/kg [4] of the same compound?
**A.** Its inhibition in vivo at 80 mg/kg is 71.1%.

**Q.** And the “d0 Wave ± SD” value [4]?
**A.** Its value is 19.1 ± 0.85.

**Q.** What about the “d21 Wave ± SD” value [4] of the same compound?
**A.** Its value is 20.1 ± 0.88.

**Q.** What about the “d21 Vave ± SD (average tumor volume)” value ([4]; in mm³ (unit assumed)) of the same compound?
**A.** Its value is 253.8 ± 56.4.

**Q.** And the “d21 RTV ± SD (relative tumor volume)” value [4]?
**A.** The value was 2.08 ± 0.59.

**Q.** And the inhibition at 0.2 µg/mL [5]?
**A.** Its inhibition at 0.2 µg/mL is 93%.

**Q.** What about the inhibition at 1 µg/mL [5] of the same compound?
**A.** The inhibition at 1 µg/mL was 100%.

**Q.** What about the inhibition at 5 µg/mL [5] of the same compound?
**A.** The inhibition at 5 µg/mL was 100%.

**Q.** And the IC50 at 72 h [6]?
**A.** The IC50 at 72 h was 8.69 µM.

**Q.** What does the source list for CCN(CC)CC(=O)Nc1c(C)[nH]c(/C=C2\C(=O)Nc3ccc(F)cc32)c1C [Compound 20, N-{5-[5-fluoro-2-oxo-1,2-dihydro-indol-(3Z)-ylidenemethyl]-2,4-dimethyl-1H-pyrrol-3-yl}-2-(N,N-diethylamino)acetamide]?
**A.** IC50 at 72 h [1]: > 30 µM; Cytotoxicity to tumor cells (in words) [2]: certain toxicity to some cells; IC50 at 72 h [3]: 5.21 µM; Dead animal number [4]: 0/6; Activity of inhibiting HT-29 transplanted tumor in vivo (in words) ([4]; 80 mg/kg, compared with positive control Sunitinib): inhibitory activity comparable to the positive control Sunitinib; inhibition in vivo at 80 mg/kg [4]: 89.4%; d0 Wave ± SD (average bodyweight of nude mice) [4]: 19.6 ± 0.69; d21 Wave ± SD (average bodyweight of nude mice) [4]: 20.3 ± 0.63; d21 Vave ± SD (average tumor volume) ([4]; in mm³ (unit assumed)): 93.5 ± 42.8; d21 RTV ± SD (relative tumor volume) [4]: 0.76 ± 0.32; inhibition at 0.2 µg/mL [5]: 98%; inhibition at 1 µg/mL [5]: 100%; inhibition at 5 µg/mL [5]: 100%; IC50 at 72 h [6]: > 30 µM
